Data reported in patent US6221914A, “Sulfonamide bridging compounds that inhibit tryptase activity” (Array Biopharma Inc., priority 1998, dated 2001).

Tests used:
Assay type in all cases: biochemical
[1] = biological target: T1, Human Neutrophil Cathepsin G (Homo sapiens, UniProt P08311); assay: Ki determination, human neutrophil cathepsin G (N-Suc-Ala-Ala-Pro-Phe-pNA); settings: 625 mM Tris-HCl, pH 7.5, 2.5 mM MgCl2, 0.125% Brij 35; read-out: Experimentally Determined Ki, Cathepsin G
T1 construct: from tissue; host or cells: human neutrophils
T1 sequence (P08311 21-255): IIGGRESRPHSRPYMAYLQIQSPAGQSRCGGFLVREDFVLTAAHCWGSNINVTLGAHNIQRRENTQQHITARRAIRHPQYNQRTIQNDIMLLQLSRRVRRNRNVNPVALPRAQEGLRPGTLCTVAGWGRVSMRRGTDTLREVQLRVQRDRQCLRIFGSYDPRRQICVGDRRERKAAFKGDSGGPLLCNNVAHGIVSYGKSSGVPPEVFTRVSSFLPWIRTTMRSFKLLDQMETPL
Experimental: (§1) Protease inhibition was assayed according to published procedures with minor modifications using various proteases and specific chromogenic peptide p-nitroanilide substrates. Assays were performed in Costar ultra-low cluster 96-well microtiter plate (Costar Corning Corp., Cambridge Mass.). Each protease was incubated with various concentrations of the test compound for 15 min. at 37° C. or as otherwise indicated, in specific assay buffer, and the residual activity was then measured by addition of the substrate. p-Nitroaniline produced by the proteolysis was determined by measuring the change in absorbance at 405 nm on a SpectraMAX 340 plate reader (Molecular devices, Sunnyvale, Calif.).
(§2) 1. The inhibition constant, Ki is calculated from individual data points using the equation for a tight-binding inhibitor (See Beith, "Proteinase Inhibitors-Proceedings of 2nd Int. Res. Conference", Fritz, et al. eds, New York, p.4463-4469 (1974)):
(§3) vi /vo [((Ki '+[I]+[E]o)^2 -4 [I]o
(§4) [E]o)^1/2 (Ki '+[I]o -[E]o)]/2[E]o
(§5) where Ki ' is apparent inhibition constant; vi and vo are the inhibited and uninhibited rates, respectively; [I]o and [E]o are the total concentrations of inhibitor and enzyme, respectively.
(§6) [note: [E]o is determined by active site titration of enzyme]
(§7) The Ki values are obtained by correcting Ki ' values for the effect of substrate concentration according to: [formula]
(§8) 2. Other inhibition data (Ki >>[E]o), the Ki is calculated from using the equations for a competitive inhibitor: [formula]
Human Neutrophil Cathepsin G activity was determined by using N-Suc-Ala-Ala-Pro-Phe-pNA in 625 mM Tris-HCl, pH 7.5, 2.5 mM MgCl2, 0.125% Brij 35 (See Groutas et al., Arch. Biochem. Biophys. 294, 144-146 (1992)).
(§9) The inhibition constant (Ki) of the test compounds against each proteolytic enzyme was determined according to Zitnik et al., Biochem. Biophys. Res. Commun. 232, 687-697 (1997)).

[2] = biological target: T2, Human Neutrophil elastase (Homo sapiens, UniProt P08246); assay: Ki determination, human neutrophil elastase (pyroGlu-Pro-Val-pNA); settings: 100 mM Tris-HCl, pH 8.3, 0.96 M NaCl, 1% BSA; read-out: Experimentally Determined Ki, Elastase
T2 construct: from tissue; host or cells: human neutrophils
T2 sequence (P08246 30-267): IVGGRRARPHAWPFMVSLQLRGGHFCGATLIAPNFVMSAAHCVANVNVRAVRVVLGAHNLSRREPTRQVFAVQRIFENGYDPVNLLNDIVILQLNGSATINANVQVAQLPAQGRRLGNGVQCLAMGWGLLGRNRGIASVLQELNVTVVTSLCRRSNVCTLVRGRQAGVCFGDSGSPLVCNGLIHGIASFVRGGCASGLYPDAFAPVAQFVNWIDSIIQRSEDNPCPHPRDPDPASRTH
Experimental: as §1, §2, §3, §4, §5, §6, §7, §8
Human Neutrophil elastase activity was determined by using pyroGlu-Pro-Val-pNA in 100 mM Tris-HCl, pH 8.3, 0.96 M NaCl, 1% BSA (See Kramps, et al. Scand. J. Clin. Lab. Invest. 43, 427-432 (1983)).
as §9

Human plasma plasmin = biological target: T3, Human plasma plasmin (Homo sapiens, UniProt P00747); assay: Ki determination, human plasma plasmin (Tosyl-Gly-Pro-Lys-pNA); settings: 100 mM Tris-HCl, pH 7.4, 100 mM NaCl, 0.05% Triton X-100; read-out: Experimentally Determined Ki, Plasmin
T3 construct: from tissue; host or cells: human plasma
T3 sequence (P00747 581-810 limits assumed): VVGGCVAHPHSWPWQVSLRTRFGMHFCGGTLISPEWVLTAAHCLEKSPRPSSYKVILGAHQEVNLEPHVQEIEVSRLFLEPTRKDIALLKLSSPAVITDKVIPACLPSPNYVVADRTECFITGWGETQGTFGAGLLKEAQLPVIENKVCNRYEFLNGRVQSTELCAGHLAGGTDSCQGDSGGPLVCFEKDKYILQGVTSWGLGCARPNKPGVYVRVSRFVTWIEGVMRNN
T3 sequence (P00747 97-580 partner limits assumed): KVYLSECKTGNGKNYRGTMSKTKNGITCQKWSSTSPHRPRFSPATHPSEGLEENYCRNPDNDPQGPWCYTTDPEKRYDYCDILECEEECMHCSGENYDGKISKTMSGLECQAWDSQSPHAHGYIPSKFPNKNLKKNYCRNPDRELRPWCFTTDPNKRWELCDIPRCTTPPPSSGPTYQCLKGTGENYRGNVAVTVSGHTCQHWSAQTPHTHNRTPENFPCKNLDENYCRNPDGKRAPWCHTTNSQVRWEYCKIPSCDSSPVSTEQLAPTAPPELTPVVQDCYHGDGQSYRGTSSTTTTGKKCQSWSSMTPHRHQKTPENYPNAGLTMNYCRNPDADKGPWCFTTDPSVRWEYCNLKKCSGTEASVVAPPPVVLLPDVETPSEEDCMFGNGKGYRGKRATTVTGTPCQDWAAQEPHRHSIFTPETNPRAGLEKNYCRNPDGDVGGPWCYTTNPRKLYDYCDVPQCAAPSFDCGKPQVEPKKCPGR
Experimental: as §1, §2, §3, §4, §5, §6, §7, §8
Human plasma plasmin activity was determined by using Tosyl-Gly-Pro-Lys-pNAin 100 mM Tris-HCl, pH 7.4, 100 mM NaCl, 0.05% Triton X-100 (See Lottenberg, et al., Meth. Enzymol. 80, 341-361 (1981)).
as §9

Human plasma thrombin = biological target: T4, Human plasma thrombin (Homo sapiens, UniProt P00734); assay: Ki determination, human plasma thrombin (H-D-Phe-Pip-Arg-pNA); settings: 50 mM Tris-HCl, pH 8.3, 100 mM NaCl, 1% BSA; read-out: Experimentally Determined Ki, Thrombin
T4 construct: from tissue; host or cells: human plasma
Experimental: as §1, §2, §3, §4, §5, §6, §7, §8
Human plasma thrombin activity was determined by using H-D-Phe-Pip-Arg-pNA in 50 mM Tris-HCl, pH 8.3, 100 mM NaCl, 1% BSA (See Lottenberg, et al. Meth. Enzymol. 80, 341-361 (1981)).
as §9

Human lung tryptase = assay: Ki determination, human lung tryptase (Tosyl-Gly-Pro-Arg-pNA substrate); settings: 50 mM Tris-HCl pH 8.0, 37° C., 1 nM tryptase, 320 μM GPR-pNA; read-out: Experimentally Determined Ki, Tryptase
Experimental: as §1, §2, §3, §4, §5, §6, §7, §8
Human lung tryptase purchased from Cortex Biochem (San Leandro, Calif.) was purified further on a Superdex 200 gel-filtration column. The active-site concentration of the enzyme was determined by spectrophotometric titration with 4-nitrophenyl 4'-guanidinobenzoate according to Schwartz, et al., J. Immunol., 114, 2304-2311 (1990). Tryptase activity was measured according to the procedures of Schwartz, et al., J. Biol. Chem., 261, 7372-7379 (1986) (See also, Schwartz, L. B., Methods In Enzymology, 244, 88 (1994)) with minor modifications, using Tosyl-Gly-Pro-Arg-p-nitroanilide ("GPR-pNA", Sigma Chemical Co., St. Louis, Mo., T-1637) as a chromogenic substrate. The reaction was performed in 50 mM Tris-HCl, pH 8.0, containing 150 mM NaCl and 0.02% Triton X-100 at 37° C. in Costar ultra-low cluster 96-well microtiter plates (Costar Corning Corp., Cambridge, Mass.). The amount of pNA produced by tryptase was determined by measuring the change in absorbance at 405 nm on a SpectraMAX 340 plate reader (Molecular devices, Sunnyvale, Calif.). The Km for the substrate was determined by Lineweaver-Burk analysis from initial velocities of substrate hydrolysis. The inhibition assay was carried out in a total volume of 200 μL. Tryptase (30 μL- final concentration 1 nM) was incubated with various concentrations of sample compound (50 μL) to be tested in the above assay buffer for 5 min. The reaction was started by the addition of substrate GPR-pNA (40 μL-final concentration 320 μM), and the residual activity was measured after 15 min. of incubation. The inhibition constant, Ki, was determined by fitting the inhibition data to a two-site competitive binding equation using data analysis program GraphPad PRISM (GraphPad Software, Inc., San Diego, Calif.).
as §9

Human plasma factor Xa = biological target: T5, Human plasma factor Xa (Homo sapiens, UniProt P00742); assay: Ki determination, human plasma factor Xa (N-Benzoyl-Ile-Glu-Gly-Arg-pNA); settings: 50 mM Tris-HCl, pH 7.8, 200 mM NaCl, 0.05% BSA; read-out: Experimentally Determined Ki, Factor Xa
T5 construct: from tissue; host or cells: human plasma
T5 sequence (P00742 235-488 limits assumed): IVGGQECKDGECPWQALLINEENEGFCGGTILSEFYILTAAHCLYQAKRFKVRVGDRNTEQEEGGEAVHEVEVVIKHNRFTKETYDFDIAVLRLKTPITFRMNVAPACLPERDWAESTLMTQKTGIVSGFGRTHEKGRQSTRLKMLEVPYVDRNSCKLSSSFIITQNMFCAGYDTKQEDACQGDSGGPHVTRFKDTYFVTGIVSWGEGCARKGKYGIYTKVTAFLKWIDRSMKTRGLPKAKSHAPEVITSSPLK
T5 sequence (P00742 41-179 partner limits assumed): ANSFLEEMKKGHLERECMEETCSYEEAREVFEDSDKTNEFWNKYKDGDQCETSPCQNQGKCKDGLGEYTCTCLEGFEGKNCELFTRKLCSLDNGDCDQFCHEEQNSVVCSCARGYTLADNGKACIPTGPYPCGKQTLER
Experimental: as §1, §2, §3, §4, §5, §6, §7, §8
Human plasma factor Xa activity was determined by using N-Benzoyl-Ile-Glu-Gly-Arg-pNA in 50 mM Tris-HCl, pH 7.8, 200 mM NaCl, 0.05% BSA (See Lottenberg, et al. Meth. Enzymol. 80, 341-361 (1981)).
as §9

[3] = biological target: T6, Bovine pancreatic Trypsin (Bos taurus, UniProt P00760); assay: Ki determination, bovine pancreatic trypsin (N-a-Benzoyl-L-Arg-pNA); settings: 50 mM Tris-HCl, pH 8.2, 20 mM CaCl2; read-out: Experimentally Determined Ki, Trypsin
T6 construct: from tissue; host or cells: bovine pancreas
T6 sequence (P00760 24-246): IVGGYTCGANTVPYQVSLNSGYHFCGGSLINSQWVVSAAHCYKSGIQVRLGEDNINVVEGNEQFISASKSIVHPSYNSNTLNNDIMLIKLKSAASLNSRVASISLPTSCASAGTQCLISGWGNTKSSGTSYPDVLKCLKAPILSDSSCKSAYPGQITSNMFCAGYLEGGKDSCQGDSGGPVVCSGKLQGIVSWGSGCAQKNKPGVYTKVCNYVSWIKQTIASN
Experimental: as §1, §2, §3, §4, §5, §6, §7, §8
Bovine pancreatic Trypsin (TPCK-treated) activity was determined by using N-a-Benzoyl-L-Arg-pNA in 50 mM Tris-HCl, pH 8.2, 20 mM CaCl2 (See Somorin, et al., J. Biochem. 85, 157-162 (1979)).
as §9

Human plasma kallikrein = biological target: T7, Human plasma kallikrein (Homo sapiens, UniProt P03952); assay: Ki determination, human plasma kallikrein (H-D-Prolyl-Phe-Arg-pNA); settings: 50 mM Tris-HCl, pH 7.8, 200 mM NaCl, 0.05% BSA; read-out: Experimentally Determined Ki, Plasma Kallikrein
T7 construct: from tissue; host or cells: human plasma
T7 sequence (P03952 391-638 limits assumed): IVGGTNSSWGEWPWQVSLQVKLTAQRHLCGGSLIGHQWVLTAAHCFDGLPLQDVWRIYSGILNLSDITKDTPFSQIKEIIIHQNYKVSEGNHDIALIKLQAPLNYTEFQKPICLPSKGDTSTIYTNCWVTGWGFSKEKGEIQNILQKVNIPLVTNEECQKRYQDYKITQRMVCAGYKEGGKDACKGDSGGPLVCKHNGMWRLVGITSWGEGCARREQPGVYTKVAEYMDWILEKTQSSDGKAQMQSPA
T7 sequence (P03952 20-390 partner limits assumed): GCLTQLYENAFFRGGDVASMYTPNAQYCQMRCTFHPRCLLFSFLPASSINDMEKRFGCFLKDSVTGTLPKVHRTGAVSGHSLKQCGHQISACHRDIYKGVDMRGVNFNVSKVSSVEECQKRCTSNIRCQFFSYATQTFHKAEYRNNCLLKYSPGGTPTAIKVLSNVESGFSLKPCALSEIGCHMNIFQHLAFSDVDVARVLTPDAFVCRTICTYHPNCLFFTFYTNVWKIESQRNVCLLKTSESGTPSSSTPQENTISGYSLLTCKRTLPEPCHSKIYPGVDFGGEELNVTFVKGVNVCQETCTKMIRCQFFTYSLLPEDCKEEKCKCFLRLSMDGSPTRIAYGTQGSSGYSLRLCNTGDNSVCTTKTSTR
Experimental: as §1, §2, §3, §4, §5, §6, §7, §8
(§10) I. Human Plasma and r-Tissue Kallikrein
(§11) Human plasma and r-tissue kallikrein activity were determined in 50 mM Tris-HCl, pH 7.8, 200 mM NaCl, 0.05% BSA by using H-D-Prolyl-Phe-Arg-pNA and DL-Val-Leu-Arg-pNA, respectively (See Lottenberg, et al., Meth. Enzymol. 80, 341-361 (1981)).
as §9

[4] = biological target: T8, Bovine Pancreatic Chymotrypsin (Bos taurus, UniProt P00766); assay: Ki determination, bovine pancreatic chymotrypsin (N-Suc-Ala-Ala-Pro-Phe-pNA); settings: 100 mM Tris-HCl, pH 7.8, 10 mM CaCl2; read-out: Experimentally Determined Ki, Chymotrypsin
T8 construct: from tissue; host or cells: bovine pancreas
Experimental: as §1, §2, §3, §4, §5, §6, §7, §8
Bovine Pancreatic Chymotrypsin activity was determined by using N-Suc-Ala-Ala-Pro-Phe-pNA in 100 mM Tris-HCl, pH 7.8, 10 mM CaCl2 (See Delmar, et al., J. Biochem. 85, 157-162 (1979)).
as §9

r-tissue kallikrein = r-tissue kallikrein (Homo sapiens, UniProt P06870); assay: Ki determination, r-tissue kallikrein (DL-Val-Leu-Arg-pNA); settings: 50 mM Tris-HCl, pH 7.8, 200 mM NaCl, 0.05% BSA; read-out: Experimentally Determined Ki, Tissue Kallikrein
Sequence of r-tissue kallikrein (P06870 25-262): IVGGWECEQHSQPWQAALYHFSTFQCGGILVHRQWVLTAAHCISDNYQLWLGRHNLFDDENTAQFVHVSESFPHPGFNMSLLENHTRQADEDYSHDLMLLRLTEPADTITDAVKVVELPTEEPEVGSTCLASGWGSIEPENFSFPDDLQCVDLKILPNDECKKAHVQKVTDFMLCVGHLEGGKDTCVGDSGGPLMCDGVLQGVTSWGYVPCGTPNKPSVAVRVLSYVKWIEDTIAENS
Experimental: as §1, §2, §3, §4, §5, §6, §7, §8, §10, §11, §9

Row | SMILES | Ki [1] [µM] | Ki [2] [µM] | Ki (Human plasma plasmin) [µM] | Ki (Human plasma thrombin) [µM] | Ki (Human lung tryptase) [µM] | Ki (Human plasma factor Xa) [µM] | Ki [3] [µM] | Ki (Human plasma kallikrein) [µM] | Ki [4] [µM] | Ki (r-tissue kallikrein) [µM]
1 | N=C(N)c1ccc(S(=O)(=O)NCc2ccc(OCCCCCOc3ccc(CNS(=O)(=O)c4ccc(C(=N)N)cc4)cc3)cc2)cc1 [Example 42, 1,5-Bis-{4-[(4-carbamimidoyl-benzenesulfonylamino)-methyl]-phenoxy}-pentane] | > 100 | > 100 | > 100 | > 100 | 0.25 | 47 | – | – | – | –
2 | N=C(N)c1ccc(S(=O)(=O)NCc2ccc(OCCCCCCOc3ccc(CNS(=O)(=O)c4ccc(C(=N)N)cc4)cc3)cc2)cc1 [Example 44, 1,6-Bis-{4-[(4-carbamimidoyl-benzenesulfonylamino)-methyl]-phenoxy}-hexane] | – | – | – | – | 3.2 | – | 8 | – | – | –
3 | N=C(N)c1ccc(S(=O)(=O)NCc2ccc(OCCCCCCCOc3ccc(CNS(=O)(=O)c4ccc(C(=N)N)cc4)cc3)cc2)cc1 [Example 46, 1,7-Bis-{4-[(4-carbamimidoyl-benzenesulfonylamino)-methyl]-phenoxy}-heptane] | – | – | – | – | 1.5 | – | – | – | – | –
4 | N=C(N)c1ccc(S(=O)(=O)NCc2ccc(OCCCCOc3ccc(CNS(=O)(=O)c4ccc(C(=N)N)cc4)cc3)cc2)cc1 [Example 48, 1,4-Bis-{4-[(4-carbamimidoyl-benzenesulfonylamino)-methyl]-phenoxy}-butane] | – | – | – | – | 12.5 | – | 4.2 | – | – | –
5 | N=C(N)c1ccc(S(=O)(=O)NCc2ccc(OCCOc3ccc(CNS(=O)(=O)c4ccc(C(=N)N)cc4)cc3)cc2)cc1 [Example 52, 1,2-Bis-{4-[(4-carbamimidoyl-benzenesulfonylamino)-methyl]-phenoxy}-ethane] | – | – | – | – | 1.5 | – | – | – | – | –
6 | N=C(N)c1ccc(S(=O)(=O)NCc2cccc(OCCCCCOc3cccc(CNS(=O)(=O)c4ccc(C(=N)N)cc4)c3)c2)cc1 [Example 74, 1,5-Bis-{3-[(4-carbamimidoyl-benzenesulfonylamino)-methyl]-phenoxy}-pentane] | > 100 | > 100 | 3.7 | > 100 | – | 40 | 1.4 | 9 | > 100 | 16
7 | N=C(N)c1cccc(S(=O)(=O)NCc2cccc(OCCCCCOc3cccc(CNS(=O)(=O)c4cccc(C(=N)N)c4)c3)c2)c1 [Example 75, 1,5-Bis-{3[-(3-carbamimidoyl-benzenesulfonylamino)-methyl]-phenoxy}-pentane] | > 100 | > 100 | > 100 | > 100 | – | 6 | 3 | 2.9 | > 100 | > 100
8 | N=C(N)c1ccc2[nH]c(CC(=O)NCc3ccc(CNCCNCc4ccc(CNC(=O)Cc5nc6cc(C(=N)N)ccc6[nH]5)cc4)cc3)nc2c1 [Example 119] | – | – | – | – | 0.002 | – | – | – | – | –
